Experimental data from patent US20250176877A1, “SENSING PLATFORMS WITH NEEDLES AND METHODS OF FABRICATION AND USE” (Purdue Research Foundation, priority 2023, published 2025).

Tested on: HL-1 cells
Conditions: 100 nM nifedipine, control without drug 0.85±0.17 mV
Experimental: The surface of the sensing platform 10 was coated with a gelatin solution to ensure cell adhesion, and no additional functionalization agents were used. […] To further improve the adhesion of the needles 12 to the cell membrane, mechanoporation was conducted by centrifuging at 500 rpm for one minute. Electroporation was followed using a series of biphasic square pulses to facilitate electrical access to the intracellular region. […] In order to showcase the live imaging capabilities through the optical transparency of the sensing platform 10, concurrent calcium ion (Ca^2+) flux imaging was simultaneously performed using an inverted microscope—a standard tool that is compatible only with transparent substrates. For Ca^2+ flux imaging, Fluo-8, a fluorescent calcium indicator, was loaded into the cells for live imaging, and the alteration in fluorescent intensity (AF) was measured and compared with the resting intensity (F0).
To evaluate the signal quality of the sensing platform 10, a comparative analysis of signal amplitude was conducted in comparison to a control group including the needles on a Si wafer. The measurements were limited to the cells that had been beating at approximately 1 Hz for at least one day, as the recorded amplitude and beating interval can vary with cell culture age.

COC(=O)C1=C(C)NC(C)=C(C(=O)OC)C1c1ccccc1[N+](=O)[O-] [nifedipine]
peak amplitude of action potential: 0.55±0.12 mV
